Values belong to the compound of their own block, whether it stands above or below them.
Key:
[1] = tested on: MPTP macaque model of Parkinson's disease; assay: MPTP macaque model of advanced stages of PD; format: in vivo, Macaca fascicularis
Description: The anti-parkinsonian efficacy of the compound of formula (I) according to the present invention (i.e., PXT002331) was evaluated in the 1-methyl-4-phenyl-1,2,3,6-tetrahydropyridine (MPTP) macaque model of Parkinson's disease (using macaques of the species Macaca fascicularis), which reproduces most of the clinical and pathological hallmarks of Parkinson's disease and is considered a “gold standard” (see Porras G et al., Cold Spring Harb Perspect Med., 2(3):a009308, 2012 and references cited therein for a general description of the MPTP model). […] The anti-parkinsonian efficacy of PXT002331 (25 mg/kg) was further evaluated in combination with low (suboptimal) doses of L-dopa (levodopa; 4-9 mg/kg) (see FIGS. 5B and 5C). In this model, levodopa methyl ester was administered sub-cutaneously together with a fixed dose of benserazide (50 mg total), a peripherally-acting levodopa decarboxylase inhibitor. Doses of PXT002331 were orally administered twice a day during 4 days, and assessment of parkinsonian scores took place at day 4 (between 1 and 2 h after L-dopa administration, i.e., between 2 and 3 h after PXT002331 administration). […] The results of a dose-response evaluation of the combination of PXT002331 (at doses from 2 mg/kg to 100 mg/kg) with L-dopa (low dose) are shown in FIG. 5D (the assessment of parkinsonian scores took place at day 4).

[2] = tested on: CLD MPTP macaque model; assay: Variable Delayed Response (VDR) task, cognitive performance of CLD MPTP monkeys; format: in vivo, Macaca fascicularis
Text: Monkeys that receive chronic low doses of MPTP administration (CLD MPTP macaque model) develop cognitive impairment, as measured in the Variable Delayed Response (VDR) task. It was therefore decided to evaluate the cognitive impact of PXT002331 in these animals, in order to assess potential side effects on cognitive symptoms.

[3] = tested on: CLD MPTP macaque model of early-stage PD; assay: chronic low doses of MPTP (CLD MPTP) macaque model of early-stage PD; format: in vivo, Macaca fascicularis
Description: In this model, levodopa was administered orally as Madopar which contains benserazide hydrochloride (4:1 ratio of levodopa:benserazide), a peripherally-acting levodopa decarboxylase inhibitor. In this experiment, each monkey was equipped with a detector of movements and signals were collected with 24 light beams and a video track recorder in order to discriminate all types of movements. The movements of each monkey were quantified every 5 min using computer-based activity monitors. Total values are presented over 4 hours.

[4] = in vivo pharmacokinetics in rats (plasma and brain exposure); parameters: species or system male Sprague-Dawley rats; details: rat
Description: PXT002331 and PXT001858 were administered per os (p.o.) at 10 mg/kg to male Sprague-Dawley rats. Volume of administration was 10 ml/kg. In parallel, PXT002331 was also administered intravenously (i.v.) at 1 mg/kg, with a volume of administration of 2 ml/kg. Blood samples (200 μl) were collected at time ranging from 15 minutes to 24 hours for the p.o. administration and from 5 minutes to 24 hours for the i.v. administration in ice-cold tubes containing 0.2% K2EDTA. Tubes were centrifuged at 10,000 rpm for 5 minutes at 4° C. The plasma (supernatant) was separated in another tube and stored at −80° C. until analysis. Two groups of 3 animals were used for each route of administration: in one group, blood samples were collected to determine the kinetics of plasma exposure over a 24-hour period, and in the second group, blood and brain were collected at one terminal time point (0.5, 1.0, 1.5, 2.0, 4.0 hours) to determine the kinetics of brain exposure and brain/plasma ratio.
The respective parent compound (free base) was analysed in plasma samples and in brain homogenate using a LC-MS/MS method. Concentrations are expressed in ng/ml of plasma or in ng/g of brain tissue.

[5] = intestinal absorption CaCo-2 (A-B, pgp); format: in vitro ADME; details: human, Caco-2; A-B
Description: (§1) The in vitro ADME profile of PXT002331 was also very similar with reference to phase I metabolic stability: CL (h/r): 55/101 μl/min/mg protein and intestinal absorption: CaCo-2 (A-B, pgp): 4.11 .10-6 cm/s, no efflux.

[6] = tested on: CaCo-2; assay: intestinal absorption CaCo-2 (A-B, pgp); format: in vitro ADME; details: pgp
Description: as §1

[7] = tested on: MPTP macaque model of L-DOPA-induced dyskinesia; assay: MPTP macaque model of L-DOPA-induced dyskinesia (LID); format: in vivo
Description: Like PD patients, MPTP macaques experience side effects of their long-term L-DOPA therapy, including L-DOPA-induced dyskinesia (LID). This was the case with the MPTP macaques that were at an advanced stage of parkinsonism used in this experiment. PXT002331 was tested in these monkeys, using the dose of 25 mg/kg in combination with L-DOPA.
Moreover, this was observed as early as day 1, which corresponds to an acute administration of PXT002331, and is maintained after a sub-chronic treatment (twice daily for 8 consecutive days). Importantly, the efficacy of L-DOPA for reducing parkinsonian symptoms (tremor, posture, mobility) was maintained in association with PXT002331 dose, as shown in FIG. 9B.

[8] = phase I metabolic stability, CL (r); format: in vitro ADME; details: rat; r of CL (h/r)
Description: as §1

[9] = plasma protein binding; format: in vitro ADME; details: read-out: plasma protein binding, free fraction
[10] = solubility in water; format: physicochemical; details: as hydrochloride salt
[11] = phase I metabolic stability, CL (h); format: in vitro ADME; details: human; h of CL (h/r)
Description: as §1

[12] = tested on: UGT (UDP-Glucuronosyl transferase); assay: in vitro glucuronidation in rat liver microsomes; format: in vitro ADME; details: in vitro in the presence of UGT
Description: Despite their similar oral absorption, PXT002331 has a higher brain/plasma ratio (6.5 versus 2.0 at T=1.5 h; see FIG. 4) leading to a 3-fold improvement in the brain AUC when compared to PXT001858. A posteriori, one potential hypothesis might rely on the difference of phase II conjugation in the intestine and liver during oral absorption. […] Nonetheless, this difference observed in vitro cannot by itself explain the unexpected advantageous PK results obtained with PXT002331. The results obtained in these experiments are furthermore summarized in Tables 1 to 3 below and in FIGS. 1 to 4.

[13] = tested on: MPTP macaques; assay: general behavior, adverse events in MPTP macaques; format: in vivo, Macaca fascicularis; details: alone or with L-DOPA, even at high doses
Description: Adverse events and side effects of PXT002331 were analyzed during each study performed in macaques (see Example 3).

[14] = target: human mGluR4 (Homo sapiens, UniProt Q14833); assay: calcium assay, agonistic and/or positive allosteric modulator activity; format: cell-based; details: read-out: EC50 (corresponding to pEC50) (converted)
Description: The compound of formula (I) according to the invention (i.e., PXT002331) was tested for its agonistic and/or positive allosteric modulator activity on human mGluR4 using the calcium assay described in Example 171 of WO 2011/051478.

[15] = p.o. 10 mg/kg, vehicle Tween-80/Ethanol/30% HPBCD (2/10/88)

human mGluR4, sequence (Q14833 33-912): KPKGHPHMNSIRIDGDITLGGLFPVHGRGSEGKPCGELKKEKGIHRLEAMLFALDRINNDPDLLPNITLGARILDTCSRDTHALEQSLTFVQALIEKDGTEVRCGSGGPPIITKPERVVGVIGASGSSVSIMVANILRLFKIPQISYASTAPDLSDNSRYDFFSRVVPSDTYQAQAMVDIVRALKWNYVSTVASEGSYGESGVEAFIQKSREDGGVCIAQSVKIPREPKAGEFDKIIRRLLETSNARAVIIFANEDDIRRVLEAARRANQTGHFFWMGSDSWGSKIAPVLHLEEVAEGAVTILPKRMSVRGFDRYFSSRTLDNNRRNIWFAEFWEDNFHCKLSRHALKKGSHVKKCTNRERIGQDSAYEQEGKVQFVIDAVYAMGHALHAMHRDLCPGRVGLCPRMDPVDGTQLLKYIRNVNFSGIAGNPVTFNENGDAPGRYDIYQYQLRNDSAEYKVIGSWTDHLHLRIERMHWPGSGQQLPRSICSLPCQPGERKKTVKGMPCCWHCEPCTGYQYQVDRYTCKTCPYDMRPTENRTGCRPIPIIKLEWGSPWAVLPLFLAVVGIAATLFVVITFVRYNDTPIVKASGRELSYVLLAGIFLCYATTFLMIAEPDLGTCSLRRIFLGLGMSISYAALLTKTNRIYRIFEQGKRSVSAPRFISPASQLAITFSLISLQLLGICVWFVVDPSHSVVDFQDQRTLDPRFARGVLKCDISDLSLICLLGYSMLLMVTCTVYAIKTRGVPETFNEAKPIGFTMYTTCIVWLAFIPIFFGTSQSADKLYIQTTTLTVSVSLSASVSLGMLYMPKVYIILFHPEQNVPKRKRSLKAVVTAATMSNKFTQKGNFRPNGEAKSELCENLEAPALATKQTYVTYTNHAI

dyskinesia (mean dyskinesia score) ([1]; highest doses of L-DOPA): very mild
dyskinesia ([1]; sub-optimal doses of L-DOPA): weak or absent
omissions in VDR task ([2]; one out of four animals, optimal dose of L-DOPA alone): ~100%
induction of dyskinesia ([3]; L-DOPA alone, model of early stage PD): did not induce dyskinesia
Compound: N[C@@H](Cc1ccc(O)c(O)c1)C(=O)O [L-DOPA, L-3,4-dihydroxyphenylalanine, reference compound]

Brain AUC inf ([4]; oral 10 mg/kg): 838 ng·h/g
Cmax (Brain) ([4]; oral 10 mg/kg): 521 ng/G tissue
Compound: O/N=c1\cc(-c2cc3sccc3cn2)oc2ccc(OCCN3CCOCC3)cc12 [PXT001858, reference compound]

Papp A→B [5]: 4.11 ×10⁻⁶ cm/s
CaCo-2 efflux [6]: no efflux
induction of dyskinesia ([1]; PXT002331 alone, any of the doses tested, more advanced stages of PD): did not induce dyskinesia
change of dyskinesia by PXT002331 treatment ([1]; added to sub-optimal doses of L-DOPA, any dose tested): not increased
microsomal CLint [8]: 101 µL/min/mg
fraction unbound [9]: < 0.01
Kp at 1.5 h ([4]; male, Sprague-Dawley, brain, oral 10 mg/kg, T = 1.5 h, read-out: Brain/Plasma ratio (T = 1.5 h)): 6.5
bioavailability ([4]; male, Sprague-Dawley, plasma, oral, p.o. 10 mg/kg vs i.v. 1 mg/kg): 39%
AUC(0-inf) ([4]; male, Sprague-Dawley, plasma, oral 10 mg/kg): 432 ng·h/mL
Brain AUC inf ([4]; oral 10 mg/kg): 2713 ng·h/g
Cmax (Brain) ([4]; oral 10 mg/kg): 818 ng/G tissue
improvement in brain AUC compared to PXT001858 ([4]; oral 10 mg/kg): 3 fold
plasma exposure AUC relative to PXT001858 [4, 15]: 1.1 fold
plasma exposure Cmax relative to PXT001858 [4, 15]: 0.7 fold
solubility [10]: > 10000 µg/mL
microsomal CLint [11]: 55 µL/min/mg
level of glucuronidation compared to PXT001858 [12]: much lower level of glucuronidation
EC50 [14]: ~0.076 µM
induction of dyskinesia ([3]; CLD MPTP macaques, PXT002331 alone or in combination with any doses of L-DOPA tested): no induction of dyskinesia
induction of dyskinesia ([3]; PXT002331 25 to 100 mg/kg + optimal (high) dose of L-dopa): without inducing dyskinesia
Compound: O/N=c1\cc(-c2cc3sccc3cn2)oc2ccc(CCCN3CCOCC3)cc12 [PXT002331, 6-(3-morpholin-4-yl-propyl)-2-(thieno[3,2-c]pyridin-6-yl)-4H-chromen-4-one oxime]
robustness: monkeys improving in parkinsonian score ([1]; PXT002331 25 mg/kg + low dose L-dopa, day 4): all treated monkeys showed a significant improvement in parkinsonian score
parkinsonian score versus L-dopa (suboptimal dose) alone ([1]; PXT002331 25 mg/kg p.o. twice a day 4 days + suboptimal L-dopa 4-9 mg/kg, day 4): considerable improvement in parkinsonian score
anti-parkinsonian effect, dose-response evaluation ([1]; PXT002331 2 to 100 mg/kg oral + L-dopa (low dose), day 4): highly potent anti-parkinsonian effect
anti-parkinsonian activity (parkinsonian score) ([1]; stand-alone treatment, p.o. twice a day for 4 days, score at day 4 over 2 h, n=7): potent anti-parkinsonian activity
worsening of cognitive performances in VDR task ([2]; PXT002331 25 mg/kg alone or in combination with L-DOPA, N=4): none of the treatments with PXT002331, alone or in combination with L-DOPA, induced any worsening of the cognitive performances
omission rate in VDR task, change on adding PXT002331 ([2]; one out of four animals, PXT002331 25 mg/kg added to optimal dose of L-DOPA): decreased by half
dyskinesia (mean dyskinesia score over 2 hours) ([7]; PXT002331 25 mg/kg + L-DOPA, 30 min before or same time, day 1 and day 8 (twice daily)): clear reduction of dyskinesia
robustness: dyskinetic monkeys responding ([7]; PXT002331 25 mg/kg + L-DOPA, N=4 dyskinetic animals): each and every dyskinetic monkey included in the study responded to treatment
efficacy of L-DOPA for reducing parkinsonian symptoms (tremor, posture, mobility) ([7]; in association with PXT002331 25 mg/kg): maintained
adverse change in behavior (circling, excitement, lethargy, sleepiness) [13]: never induced any apparent adverse change in behavior
robustness: monkeys responding in locomotor activity ([3]; PXT002331 25 mg/kg + L-dopa): each and every monkey included in the study responded
locomotor activity ([3]; PXT002331 25 mg/kg oral + low or optimal dose of L-dopa (Madopar), total over 4 hours, N=5): significant improvement in locomotor activity
disability score ([3]; increasing doses of PXT002331 + L-dopa (optimal dose)): improvement in the disability score

Reference: patent publication US20200171042A1, “BRAIN-PENETRANT CHROMONE OXIME DERIVATIVE FOR THE THERAPY OF LEVODOPA-INDUCED DYSKINESIA” (Prexton Therapeutics SA, priority 2015, published 2020)
